Measurements: patent US8653110B2, “Active compound combination comprising azadirachtin and a substituted enaminocarbonyl compound” (Bayer CropScience AG, priority 2010, dated 2014)

Experiments:
Assay type in all cases: in vivo
[1] = tested on: Spodoptera exigua; assay: Spodoptera exigua caterpillars on carnations, feeding damage (Example 1); conditions: for Day 7 reduction of feeding damage in %: Day 7, (I-1) 150, azadirachtin 30, (I-1)+azadirachtin 150+30, imidacloprid 100 g of active compound/ha; for Day 32 reduction of feeding damage in %: Day 32, (I-1) 150, azadirachtin 30, (I-1)+azadirachtin 150+30, imidacloprid 100 g of active compound/ha; for Day 40 reduction of feeding damage in %: Day 40, (I-1) 150, azadirachtin 30, (I-1)+azadirachtin 150+30, imidacloprid 100 g of active compound/ha
Experimental: Example 1 describes the effect of the combination according to the invention on caterpillars of the owlet moth (Spodoptera exigua) on carnations (Dianthus caryophyllus). Azadirachtin was employed as NeemAzal® from Trifolio GmbH. The test was carried out according to EPPO guidelines PP 1/152 (2), PP 1/181 (3), PP 1/135 (3) and PP 1/210 (1) with 4 repetitions of in each case 10 plants. At the start of the infection, the plants were treated as follows: • 1. untreated • 2. compound (I-1) as SL 200 (17% strength), 150 g of active compound/ha • 3. azadirachtin 30 g of active compound/ha • 4. compound (I-1) as SL 200+azadirachtin, 150+30 g of active compound/ha • 5. positive control: imidacloprid 100 g of active compound/ha
The spray solution was prepared by mixing commercial formulations and using water to adjust to the concentration mentioned. The application rate was 1000 l/ha. 3 Applications were carried out at intervals of 10-14 days. The feeding damage caused by the caterpillars on the carnation leaves was scored at weekly intervals.

[2] = tested on: Trialeurodes vaporariorum; assay: Whiteflies on tomatoes (Example 5)
Experimental: Example 5 describes the effect of the combination according to the invention against whiteflies (Trialeurodes vaporariorum) on tomatoes (Lycopersicon esculentum). The test was carried out under GEP according to EPPO guideline PP 1/36(2) with 3 repetitions of in each case 4 plants. At the start of the infection, the plants were treated as follows: • 1. untreated • 2. compound (I-1) as SL 200 (compound according to formula (I-1), 17% strength), 50 g of active compound/ha • 3. azadirachtin 30 g of active compound/ha, NeemAzal® • 4. azadirachtin 15 g of active compound/ha, NeemAzal® • 5. azadirachtin 5 g of active compound/ha, NeemAzal® • 6. compound (I-1) as SL 200+azadirachtin, 50+30 g of active compound/ha • 7. compound (I-1) as SL 200+azadirachtin, 50+15 g of active compound/ha • 8. compound (I-1) as SL 200+azadirachtin, 50+5 g of active compound/ha • 9. positive control imidacloprid 100 g of active compound/ha
The spray solution was prepared by mixing commercial formulations and using water to adjust to the concentration mentioned. The application rate was 1000 l/ha. 2 applications were carried out at intervals of 14 days. The number of adult flies and the number of larvae were scored on days 2 to 21 after the first application. What is shown is the effect of the products, which becomes evident in a reduction of the number of insects or larvae compared to the untreated control. Imidacloprid was also tested, as positive control.

[3] = tested on: Tetranychus urticae; assay: Greenhouse red spider mite on roses (Example 7)
Experimental: Example 7 describes the effect of the combination according to the invention on the greenhouse red spider mite (Tetranychus urticae) on roses. The test was carried out in a greenhouse under GEP according to EPPO guideline PP 1/168(2) with 4 repetitions of in each case 4 plants. At the start of the infection, the plants were treated as follows: • 1. untreated • 2. compound (I-1) as SL 200 (compound according to formula (I-1), 17% strength), 50 g of active compound/ha • 3. azadirachtin 30 g of active compound/ha, NeemAzal® • 4. azadirachtin 5 g of active compound/ha, NeemAzal® • 5. compound (I-1) as SL 200+azadirachtin, 50+30 g of active compound/ha • 6. compound (I-1) as SL 200+azadirachtin, 50+5 g of active compound/ha • 7. positive control imidacloprid 100 g of active compound/ha
The spray solution was prepared by mixing commercial formulations and using water to adjust to the concentration mentioned. The application rate was 1000 l/ha. 2 applications were carried out at intervals of 14 days. The number of spider mites on days 2 to 32 after the first application was scored. What is shown is the effect of the products, which becomes evident in a reduction of the number of spider mites compared to the untreated control.

[4] = tested on: Spodoptera frugiperda; assay: Fall armyworm caterpillars on maize, feeding damage (Example 8); conditions: reduction of feeding damage
[5] = tested on: Phyllotreta nigripes; assay: Turnip flea beetle on cabbage (Example 10); conditions: (I-1) 150, azadirachtin 30, (I-1)+azadirachtin 150+30, imidacloprid 100 g/ha
Experimental: Example 10 describes the effect of the combination according to the invention on caterpillars of the turnip flea beetle Phyllotreta nigripes on cabbage. The test was carried out according to EPPO guidelines PP 1/210(1), PP 1/152 (2), PP 1/181 (3) and PP 1/135 with 4 repetitions of in each case 10 plants. The plants were treated as follows: • 1. untreated • 2. compound (I-1) as SL 200 (compound according to formula (I-1), 17% strength), 150 g of active compound/ha • 3. azadirachtin 30 g of active compound/ha, NeemAzal® • 4. compound (I-1) as SL 200+azadirachtin, 150+30 g of active compound/ha • 5. positive control imidacloprid 100 g of active compound/ha
The spray solution was prepared by mixing commercial formulations and using water to adjust to the concentration mentioned. The application rate was 1000 l/ha. 2 applications were carried out at intervals of 14 days. The number of live caterpillars on days 7 to 32 after the first application was scored. What is shown is the effect of the products, which becomes evident in a reduction of the number of caterpillars compared to the untreated control.

[6] = Day 2, (I-1) 50, azadirachtin 30, (I-1)+azadirachtin 50+30, imidacloprid 100 g/ha
[7] = Day 7, (I-1) 50, azadirachtin 30, (I-1)+azadirachtin 50+30, imidacloprid 100 g/ha
[8] = Day 14, (I-1) 50, azadirachtin 30, (I-1)+azadirachtin 50+30, imidacloprid 100 g/ha
[9] = Day 21, (I-1) 50, azadirachtin 30, (I-1)+azadirachtin 50+30, imidacloprid 100 g/ha
[10] = Days 28-32, (I-1) 50, azadirachtin 30, (I-1)+azadirachtin 50+30, imidacloprid 100 g/ha
[11] = Days 35-42, (I-1) 50, azadirachtin 30, (I-1)+azadirachtin 50+30, imidacloprid 100 g/ha
[12] = Day 2, azadirachtin 5, (I-1)+azadirachtin 50+5 g/ha
[13] = Day 2, azadirachtin 15, (I-1)+azadirachtin 50+15 g/ha
[14] = Day 7, azadirachtin 5, (I-1)+azadirachtin 50+5 g/ha
[15] = Day 7, azadirachtin 15, (I-1)+azadirachtin 50+15 g/ha
[16] = Day 14, azadirachtin 5, (I-1)+azadirachtin 50+5 g/ha
[17] = Day 14, azadirachtin 15, (I-1)+azadirachtin 50+15 g/ha
[18] = Day 21, azadirachtin 5, (I-1)+azadirachtin 50+5 g/ha
[19] = Day 21, azadirachtin 15, (I-1)+azadirachtin 50+15 g/ha
[20] = Days 28-32, azadirachtin 5, (I-1)+azadirachtin 50+5 g/ha

`O=C1C=C(N(Cc2ccc(Cl)nc2)CC(F)F)CO1` [(I-1), 4-{[(6-chloropyrid-3-yl)methyl](2,2-difluoroethyl)amino}furan-2(5H)-one] was tested, and the “Day 7 reduction of feeding damage in %” value [1] was 0%, the “Day 32 reduction of feeding damage in %” value [1] was 49% and the “Day 40 reduction of feeding damage in %” value [1] was 88%. For the same molecule, the “Activity against adults [%]” value [2, 6] was 73%, the “Activity against larvae [%]” value [2, 6] was 0% and the “Activity against adults [%]” value [2, 7] was 75%. The “Activity against larvae [%]” value [2, 7] was 18%, the “Activity against adults [%]” value [2, 8] was 22% and the “Activity against larvae [%]” value [2, 8] was 0%. For the same molecule, the “Activity against adults [%]” value [2, 9] was 57%, the “Activity against larvae [%]” value [2, 9] was 14% and the “Activity against Tetranychus urticae [%]” value [3, 6] was 28%. The “Activity against Tetranychus urticae [%]” value [3, 7] was 15%, the “Activity against Tetranychus urticae [%]” value [3, 8] was 43% and the “Activity against Tetranychus urticae [%]” value [3, 9] was 12%. For the same molecule, the “Activity against Tetranychus urticae [%]” value [3, 10] was 15%, the “Activity against Spodoptera frugiperda [%]” value [4, 7] was 0% and the “Activity against Spodoptera frugiperda [%]” value [4, 8] was 0%. For the same molecule, the “Activity against Spodoptera frugiperda [%]” value [4, 9] was 0%, the “Activity against Spodoptera frugiperda [%]” value [4, 10] was 0% and the “Activity against Spodoptera frugiperda [%]” value [4, 11] was 0%. The “Activity against Phyllotreta nigripes [%]” value ([5]; Day 7) was 0%, the “Activity against Phyllotreta nigripes [%]” value ([5]; Days 14-16) was 9.5% and the “Activity against Phyllotreta nigripes [%]” value ([5]; Days 21-25) was 7.4%. For the same molecule, the “Activity against Phyllotreta nigripes [%]” value ([5]; Days 28-32) was 2.8%.
In the case of `C/C=C(\C)C(=O)O[C@H]1C[C@@H](OC(C)=O)[C@@]2(C(=O)OC)CO[C@H]3[C@@H](O)[C@@](C)([C@]45O[C@@]4(C)[C@H]4C[C@@H]5O[C@@H]5OC=C[C@@]54O)[C@H]4[C@]1(CO[C@]4(O)C(=O)OC)[C@@H]32` [azadirachtin], the “Day 7 reduction of feeding damage in %” value [1] is reported as 0%, the “Day 32 reduction of feeding damage in %” value [1] is reported as 92% and the “Day 40 reduction of feeding damage in %” value [1] is reported as 100%. The “Activity against adults [%]” value [2, 6] was 45%, the “Activity against larvae [%]” value [2, 6] was 0% and the “Activity against adults [%]” value [2, 12] was 23%. For the same molecule, the “Activity against larvae [%]” value [2, 12] was 0%, the “Activity against adults [%]” value [2, 13] was 47% and the “Activity against larvae [%]” value [2, 13] was 0%. For the same molecule, the “Activity against adults [%]” value [2, 7] was 47%, the “Activity against larvae [%]” value [2, 7] was 2% and the “Activity against adults [%]” value [2, 14] was 7%. For the same molecule, the “Activity against larvae [%]” value [2, 14] was 24%, the “Activity against adults [%]” value [2, 15] was 54% and the “Activity against larvae [%]” value [2, 15] was 13%. For the same molecule, the “Activity against adults [%]” value [2, 8] was 32%, the “Activity against larvae [%]” value [2, 8] was 13% and the “Activity against adults [%]” value [2, 16] was 0%. For the same molecule, the “Activity against larvae [%]” value [2, 16] was 12%, the “Activity against adults [%]” value [2, 17] was 49% and the “Activity against larvae [%]” value [2, 17] was 37%. The “Activity against adults [%]” value [2, 9] was 56%, the “Activity against larvae [%]” value [2, 9] was 0% and the “Activity against adults [%]” value [2, 18] was 16%. The “Activity against larvae [%]” value [2, 18] was 0%, the “Activity against adults [%]” value [2, 19] was 80% and the “Activity against larvae [%]” value [2, 19] was 0%. The “Activity against Tetranychus urticae [%]” value [3, 6] was 21%, the “Activity against Tetranychus urticae [%]” value [3, 12] was 30% and the “Activity against Tetranychus urticae [%]” value [3, 7] was 16%. For the same molecule, the “Activity against Tetranychus urticae [%]” value [3, 14] was 0%, the “Activity against Tetranychus urticae [%]” value [3, 8] was 20% and the “Activity against Tetranychus urticae [%]” value [3, 16] was 10%. For the same molecule, the “Activity against Tetranychus urticae [%]” value [3, 9] was 7%, the “Activity against Tetranychus urticae [%]” value [3, 18] was 19% and the “Activity against Tetranychus urticae [%]” value [3, 10] was 0%. The “Activity against Tetranychus urticae [%]” value [3, 20] was 6%, the “Activity against Spodoptera frugiperda [%]” value [4, 7] was 0% and the “Activity against Spodoptera frugiperda [%]” value [4, 14] was 0%. For the same molecule, the “Activity against Spodoptera frugiperda [%]” value [4, 8] was 7%, the “Activity against Spodoptera frugiperda [%]” value [4, 16] was 29% and the “Activity against Spodoptera frugiperda [%]” value [4, 9] was 53%. For the same molecule, the “Activity against Spodoptera frugiperda [%]” value [4, 18] was 61%, the “Activity against Spodoptera frugiperda [%]” value [4, 10] was 84% and the “Activity against Spodoptera frugiperda [%]” value [4, 20] was 77%. For the same molecule, the “Activity against Spodoptera frugiperda [%]” value [4, 11] was 80%, the “Activity against Spodoptera frugiperda [%]” value ([4]; Days 35-42, azadirachtin 5, (I-1)+azadirachtin 50+5 g/ha) was 81% and the “Activity against Phyllotreta nigripes [%]” value ([5]; Day 7) was 29%. The “Activity against Phyllotreta nigripes [%]” value ([5]; Days 14-16) was 51%, the “Activity against Phyllotreta nigripes [%]” value ([5]; Days 21-25) was 35% and the “Activity against Phyllotreta nigripes [%]” value ([5]; Days 28-32) was 34%.
